The results in this text go back to patent US7608619B2, “Substituted oxazole compounds with analgesic activity” (Gruenenthal GmbH, priority 2005, dated 2009).

In the test the target is T1, human μ-opiate receptor (Homo sapiens, UniProt P35372).
T1 construct: purchased Nen company, Zaventem, Belgium RB-HOM; host or cells: CHO-K1 cells (membrane preparation)
As to the kind of experiment: Affinity for the human μ-opiate receptor ([3H]-naloxone displacement, SPA, CHO-K1 membrane preparation). As to conditions: test substance 1 μmole/l, displacement of 1 nmole/l [3H]-naloxone, percentage inhibition of the specific binding; for inhibition at 1 µM: read-out: μ-opioid receptor, % inhibition [1 μM]. The essentials: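 [3H]-naloxone (1 nmol/l) displacement by SPA with WGA beads, using membranes of CHO-K1 cells expressing the receptor, in 50 mmol/l Tris-HCl with 0.05% azide and 0.06% BSA; 90 min at room temperature. Non-specific binding defined with 25 μmol/l naloxone. Value is % inhibition of specific binding at 1 μmol/l test compound.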

SMILES strings stand for the structures.

T1 sequence (P35372 whole entry): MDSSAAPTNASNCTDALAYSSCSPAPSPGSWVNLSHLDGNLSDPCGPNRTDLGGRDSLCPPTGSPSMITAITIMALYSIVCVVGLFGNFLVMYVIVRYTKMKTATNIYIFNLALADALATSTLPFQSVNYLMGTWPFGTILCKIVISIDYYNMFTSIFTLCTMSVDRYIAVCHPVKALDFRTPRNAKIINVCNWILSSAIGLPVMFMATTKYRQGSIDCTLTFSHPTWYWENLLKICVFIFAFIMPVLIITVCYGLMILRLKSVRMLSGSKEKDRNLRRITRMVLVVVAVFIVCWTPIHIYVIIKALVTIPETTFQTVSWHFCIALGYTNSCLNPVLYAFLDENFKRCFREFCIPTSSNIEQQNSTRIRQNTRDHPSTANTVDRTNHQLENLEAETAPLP

As a reminder, the inhibition is the relative decrease from the control value, in per cent. For the compound `CCN(CC)C(CC1CCC(C(c2cccs2)N(C)C)CC1)c1nc(Cc2ccccc2)c(N2CCC(Cc3ccccc3)CC2)o1` (centres unmarked) [compound 77, {1-[4-benzyl-5-(4-benzyl-piperidin-1-yl)-oxazol-2-yl]-2-[4-(dimethylamino-thiophen-2-yl-methyl)-cyclohexyl]-ethyl}-diethylamine], the inhibition at 1 µM came to 91%.

Consider `CCN(CC)C(CC1CCC(C(c2cccs2)N(C)C)CC1)c1nc(Cc2ccccc2)c(N2CCN(Cc3ccccc3)CC2)o1` (centres unmarked) [compound 78, {1-[4-benzyl-5-(4-benzyl-piperazin-1-yl)-oxazol-2-yl]-2-[4-(dimethylamino-thiophen-2-yl-methyl)-cyclohexyl]-ethyl}-diethylamine], for which the inhibition at 1 µM was determined as 100%.

Turning to `CCN(CC)C(CC1CCC(C(c2cccs2)N(C)C)CC1)c1nc(Cc2ccccc2)c(N2CCC(C)CC2)o1` (centres unmarked) [compound 79, {1-[4-benzyl-5-(4-methylpiperidin-1-yl)-oxazol-2-yl]-2-[4-(dimethylamino-thiophen-2-yl-methyl)-cyclohexyl]-ethyl}-diethylamine], the inhibition at 1 µM was determined as 97%.

Regarding `CCN(CC)C(CC1CCC(C(c2cccs2)N(C)C)CC1)c1nc(Cc2ccccc2)c(N(C)Cc2ccccc2)o1` (centres unmarked) [compound 80, Benzyl-(4-benzyl-2-{1-diethylamino-2-[4-(dimethylaminothiophen-2-yl-methyl)-cyclohexyl]-ethyl)-oxazol-5-yl)-methylamine], the inhibition at 1 µM turned out to be 93%.

As to `CN(C)C(c1cccs1)C1CCC(CC(c2nc(Cc3ccccc3)c(N3CCC(Cc4ccccc4)CC3)o2)N2CCN(Cc3ccccc3)CC2)CC1` (centres unmarked) [compound 81, ({4-[2-[4-benzyl-5-(4-benzyl-piperidin-1-yl)-oxazol-2-yl]-2-(4-benzyl-piperazin-1-yl)-ethyl]-cyclohexyl}-thiophen-2-yl-methyl)-dimethylamine], the inhibition at 1 µM was determined as 81%.

`CN(C)C(c1cccs1)C1CCC(CC(c2nc(Cc3ccccc3)c(N3CCN(Cc4ccccc4)CC3)o2)N2CCN(Cc3ccccc3)CC2)CC1` (centres unmarked) [compound 82, ({4-[2-[4-benzyl-5-(4-benzylpiperazin-1-yl)-oxazol-2-yl]-2-(4-benzyl-piperazin-1-yl)-ethyl]-cyclohexyl}-thiophen-2-yl-methyl)-dimethylamine]: the inhibition at 1 µM is 83%.

Regarding `CC1CCN(c2oc(C(CC3CCC(C(c4cccs4)N(C)C)CC3)N3CCN(Cc4ccccc4)CC3)nc2Cc2ccccc2)CC1` (centres unmarked) [compound 83, ({4-[2-[4-benzyl-5-(4-methylpiperidin-1-yl)-oxazol-2-yl]-2-(4-benzyl-piperazin-1-yl)-ethyl]-cyclohexyl}-thiophen-2-yl-methyl)-dimethylamine], the inhibition at 1 µM was determined as 97%.

Turning to `CN(Cc1ccccc1)c1oc(C(CC2CCC(C(c3cccs3)N(C)C)CC2)N2CCN(Cc3ccccc3)CC2)nc1Cc1ccccc1` (centres unmarked) [compound 84, Benzyl-(4-benzyl-2-{1-(4-benzyl-piperazin-1-yl)-2-[4-(dimethylamino-thiophen-2-yl-methyl)-cyclohexyl]-ethyl}-oxazol-5-yl)-methylamine], the inhibition at 1 µM amounted to 88%.

For the compound `CN(C)C(c1cccs1)C1CCC(CC(c2nc(Cc3ccccc3)c(N3CCN(c4ccccc4)CC3)o2)N2CCN(Cc3ccccc3)CC2)CC1` (centres unmarked) [compound 85, ({4-[2-[4-benzyl-5-(4-phenyl-piperazin-1-yl)-oxazol-2-yl]-2-(4-benzyl-piperazin-1-yl)-ethyl]-cyclohexyl}-thiophen-2-yl-methyl)-dimethylamine], the inhibition at 1 µM was found to be 91%.

Take `CN(CCc1ccccc1)c1oc(C(CC2CCC(C(c3ccc(Cl)cc3)N(C)C)CC2)N2CCCCC2)nc1Cc1ccccc1` (centres unmarked) [compound 86, [4-benzyl-2-(2-{4-[(4-chlorophenyl)-dimethylaminomethyl]-cyclohexyl}-1-piperidin-1-yl-ethyl)-oxazol-5-yl]-methylphenethylamine]: the inhibition at 1 µM turned out to be 63%.

`CCN(CC)c1oc(C(CC2CCC(C(c3ccc(Cl)cc3)N(C)C)CC2)N2CCCCC2)nc1Cc1ccccc1` (centres unmarked) [compound 87, [4-benzyl-2-(2-{4-[(4-chlorophenyl)-dimethylaminomethyl]-cyclohexyl}-1-piperidin-1-yl-ethyl)-oxazol-5-yl]-diethylamine]: the inhibition at 1 µM came to 64%.

As to `CCN(CC)C(CC1CCC(C(c2ccc(Cl)cc2)N(C)C)CC1)c1nc(Cc2ccccc2)c(N2CC(C)CC(C)C2)o1` (centres unmarked) [compound 88, (1-[4-benzyl-5-(3,5-dimethylpiperidin-1-yl)-oxazol-2-yl]-2-{4-[(4-chlorophenyl)-dimethylaminomethyl]-cyclohexyl}-ethyl)-diethylamine], the inhibition at 1 µM amounted to 79%.

With `CCN(CC)C(CC1CCC(C(c2ccc(Cl)cc2)N(C)C)CC1)c1nc(Cc2ccccc2)c(N(C)CCc2ccccc2)o1` (centres unmarked) [compound 89, [4-benzyl-2-(2-{4-[(4-chlorophenyl)-dimethylaminomethyl]-cyclohexyl}-1-diethylaminoethyl)-oxazol-5-yl]-methyl-phenethylamine], the inhibition at 1 µM turned out to be 87%.

`CCN(CC)c1oc(C(CC2CCC(C(c3ccc(Cl)cc3)N(C)C)CC2)N(CC)CC)nc1Cc1ccccc1` (centres unmarked) [compound 90, [4-benzyl-2-(2-{4-[(4-chlorophenyl)-dimethylaminomethyl]-cyclohexyl}-1-diethylaminoethyl)-oxazol-5-yl]-diethylamine]: the inhibition at 1 µM is 89%.

Regarding `CCN(CC)C(CC1CCC(C(c2ccc(Cl)cc2)N(C)C)CC1)c1nc(Cc2ccccc2)c(N2CCSCC2)o1` (centres unmarked) [compound 91, (1-(4-benzyl-5-thiomorpholin-4-yl-oxazol-2-yl)-2-{4-[(4-chlorophenyl)-dimethylaminomethyl]-cyclohexyl}-ethyl)-diethylamine], the inhibition at 1 µM was determined as 75%.

Turning to `CN(C)C(c1ccc(Cl)cc1)C1CCC(CC(c2nc(Cc3ccccc3)c(N3CCSCC3)o2)N(C)c2ccccc2)CC1` (centres unmarked) [compound 92, (1-(4-benzyl-5-thiomorpholin-4-yl-oxazol-2-yl)-2-{4-[(4-chlorophenyl)-dimethylaminomethyl]-cyclohexyl}-ethyl)-methylphenylamine], the inhibition at 1 µM was determined as 87%.

Take `CN(CCc1ccccc1)c1oc(C(CC2CCC(C(c3ccc(Cl)cc3)N(C)C)CC2)N2CCN(Cc3ccccc3)CC2)nc1Cc1ccccc1` (centres unmarked) [compound 93, [4-Benzyl-2-(1-(4-benzylpiperazin-1-yl)-2-{4-[(4-chlorophenyl)-dimethylaminomethyl]-cyclohexyl}-ethyl)-oxazol-5-yl]-methylphenethyl-amine]: the inhibition at 1 µM was found to be 66%.

On to `CCN(CC)c1oc(C(CC2CCC(C(c3ccc(Cl)cc3)N(C)C)CC2)N2CCN(Cc3ccccc3)CC2)nc1Cc1ccccc1` (centres unmarked) [compound 94, [4-benzyl-2-(1-(4-benzylpiperazin-1-yl)-2-{4-[(4-chlorophenyl)-dimethylaminomethyl]-cyclohexyl}-ethyl)-oxazol-5-yl]-diethylamine], for which the inhibition at 1 µM was 74%.

In the case of `CN(CCc1ccccc1)c1oc(C(CC2CCC(C(c3ccc(F)cc3)N(C)C)CC2)N2CCCCC2)nc1Cc1ccccc1` (centres unmarked) [compound 95, [4-benzyl-2-(2-{4-[dimethylamino-(4-fluorophenyl)-methyl]-cyclohexyl}-1-piperidin-1-yl-ethyl)-oxazol-5-yl]-methylphenethylamine], the inhibition at 1 µM was determined as 65%.

As for `CCN(CC)C(CC1CCC(C(c2ccc(F)cc2)N(C)C)CC1)c1nc(Cc2ccccc2)c(N2CC(C)CC(C)C2)o1` (centres unmarked) [compound 96, (1-[4-benzyl-5-(3,5-dimethylpiperidin-1-yl)-oxazol-2-yl]-2-{4-[dimethylamino-(4-fluorophenyl)-methyl]-cyclohexyl}-ethyl)-diethylamine], the inhibition at 1 µM is 80%.

For the compound `CCN(CC)C(CC1CCC(C(c2ccc(F)cc2)N(C)C)CC1)c1nc(Cc2ccccc2)c(N(C)CCc2ccccc2)o1` (centres unmarked) [compound 97, [4-benzyl-2-(1-diethylamino-2-{4-[dimethylamino-(4-fluorophenyl)-methyl]-cyclohexyl}-ethyl)-oxazol-5-yl]-methylphenethylamine], the inhibition at 1 µM came out at 85%.

On to `CCN(CC)c1oc(C(CC2CCC(C(c3ccc(F)cc3)N(C)C)CC2)N(CC)CC)nc1Cc1ccccc1` (centres unmarked) [compound 98, [4-benzyl-2-(1-diethylamino-2-{4-[dimethylamino-(4-fluorophenyl)-methyl]-cyclohexyl}-ethyl)-oxazol-5-yl]-diethylamine], for which the inhibition at 1 µM was 77%.

Turning to `CCN(CC)C(CC1CCC(C(c2ccc(F)cc2)N(C)C)CC1)c1nc(Cc2ccccc2)c(N2CCSCC2)o1` (centres unmarked) [compound 99, (1-(4-benzyl-5-thiomorpholin-4-yl-oxazol-2-yl)-2-{4-[dimethylamino-(4-fluorophenyl)-methyl]-cyclohexyl}-ethyl)-diethylamine], the inhibition at 1 µM came to 62%.

For `CCN(CC)C(CC1CCC(C(c2ccc(F)cc2)N(C)C)CC1)c1nc(Cc2ccccc2)c(N2CCCC(C)C2)o1` (centres unmarked) [compound 100, (1-[4-benzyl-5-(3-methylpiperidin-1-yl)-oxazol-2-yl]-2-{4-[dimethylamino-(4-fluorophenyl)-methyl]-cyclohexyl}-ethyl)-diethylamine], the inhibition at 1 µM was found to be 86%.

For `CC1CC(C)CN(c2oc(C(CC3CCC(C(c4ccc(F)cc4)N(C)C)CC3)N(C)c3ccccc3)nc2Cc2ccccc2)C1` (centres unmarked) [compound 101, (1-[4-benzyl-5-(3,5-dimethylpiperidin-1-yl)-oxazol-2-yl]-2-{4-[dimethylamino-(4-fluorophenyl)-methyl]-cyclohexyl}-ethyl)-methylphenylamine], the inhibition at 1 µM is 68%.

With `CN(CCc1ccccc1)c1oc(C(CC2CCC(C(c3ccc(F)cc3)N(C)C)CC2)N(C)c2ccccc2)nc1Cc1ccccc1` (centres unmarked) [compound 102, {4-benzyl-2-[2-{4-[dimethylamino-(4-fluorophenyl)-methyl]-cyclohexyl}-1-(methylphenylamine)-ethyl]-oxazol-5-yl}-methylphenethylamine], the “μ-opioid receptor, % inhibition [1 μM]” value is on record as 77%.
